Source: paper PMC9011347, “Small-Molecule Inhibitors Targeting Lipolysis in Human Adipocytes” (Journal of the American Chemical Society, 2022)

Test system: lipoprotein lipase (LPL) and hepatic lipase (HL)
Assay: Heparin-releasable TAG hydrolase activity in post-heparin plasma
Format: biochemical
Conditions: NG-497 100 µM, radiolabeled triolein
Experimental: Fig. S3: Investigation of off-target effects of NG-497 on structurally and functionally related lipid hydrolases. (a) PNPLA1-dependent formation of acylceramides was monitored in a cell-based assay in HEK293T cells. Experiments were performed in the presence or absence of NG-497 (40 µM) and the non-selective lipase inhibitor Orlistat (40 µM). Orlistat, but not NG-497, inhibited PNPLA1/CGI-58-dependent ω-O-acylceramide formation. (b-h) Enzymes were overexpressed in Expi293 cells and cell lysates were used as source of enzymatic activity. […] Experiments were performed in the presence or absence of NG-497 (100 µM) and the formation of reaction products was monitored. […]
Data were calculated relative to the basal activity detected in LacZ-transfected controls. […]
LPL activity was inhibited using an anti-LPL antibody. All data are presented as mean ± S.D. Statistical significance was determined via ANOVA followed by Bonferroni post hoc test ( ***, p < 0.001). […]
Released free fatty acids were quantified via NEFA C kit (Fujifilm Wako Chemicals, Neuss, Germany) and release of p-nitrophenol was measured at 405 nm. […] Cellular ω-O-acylceramide formation was monitored using [1-14C]linoleic acid as tracer. […] The activity of purified human pancreatic lipase (MilliporeSigma #SRE0028) was determined as previously described7 in the presence or absence of NG-497 (100µM) or Orlistat (20 µM). […]

With `CCOc1ccc(-c2cc(OC)cc(C(=O)OC(C)C)n2)cc1` [NG-497] the “inhibition of heparin-releasable TAG hydrolase activity in human serum” value was “did not observe inhibition”.
